These results are taken from a melting point compilation (Tetko et al.; mined from patent text by program, amines drawn as free bases though some values may be those of a salt).

With `c1cnc(C2CNCC(c3ncccn3)N2)nc1` (stereo not given), the melting point fell in the range of 159 to 161 °C.

`Oc1cccc(C2CCCN2Cc2ccncc2)c1` (stereo not given) yielded a melting point of 138 °C.

Molecule `Cc1cc(=O)n(C)c2[nH]n(-c3ccccc3)c(=O)c12` came in with a melting point of 179 to 181 °C.

As for `CN1CC(c2cccc(Cl)c2)=C(c2ccc(S(C)(=O)=O)cc2)C1=O`, the melting point was 170 to 172 °C.

`NC(=S)NN=C(CCCCl)c1ccccc1`: the melting point was in the range of 128 to 130 °C.

Regarding `COC(=O)c1cc(O)cc(O[C@@H](C)CO)c1`, the melting point was 133 °C.

`Oc1cccc2c1OCCCO2` came in with a melting point of 112 to 114 °C.

The molecule `NC(=O)CNC(=O)c1cccc(-c2c(F)ccc3cc(Cc4cccc(C(F)(F)F)c4)sc23)c1` had a melting point of 130 to 131 °C.

In turn, `CC1(C)c2c(ccc3cc(C#N)c(Cn4cncn4)cc23)OC1O` (stereo not given) returned a melting point of 219 to 222 °C.

For `CC(=O)Oc1ccc(C2CC(=O)OC(=O)C2)cc1`, the melting point lay in the range of 140 to 143 °C.

The molecule `CC12CCC3c4ccc(C(=O)O)cc4CCC3C1CCC2C(=O)c1cccnc1` (stereo not given) returned a melting point of 189 to 192 °C.

For `O=C1CCc2c(Cl)cc(Cl)c(I)c21`, the melting point lay in the range of 170 to 172 °C.

Molecule `FC(F)(F)/C(=C(\c1ccccc1)c1ccc(OCc2ccccc2)cc1)c1ccccc1` came in with a melting point of 128 to 129 °C.

In the case of `FC(F)(c1ccccc1)C(F)(F)c1cccc(Br)c1`, the melting point fell in the range of 72 to 75 °C.

The molecule `COc1cc(COc2nn(-c3ccccc3)cc2C=CC(=O)NNC(C)=O)ccc1OCc1nc(-c2ccco2)oc1C` gave a melting point of 221 to 222 °C.

For `CCOc1nsc(S(C)(=O)=O)c1Cl`, the melting point lay within 85 to 87 °C.

Molecule `Cn1ncnc1COc1nc2c(cc1C(C)(C)C)nnn2-c1c(F)cccc1F` yielded a melting point of 105 to 108 °C.

On to `CC(C#N)c1ccc(CCc2ccccc2C(=O)O)cc1` (stereo not given), for which the melting point came out at 73 °C.

Take `Cc1cc2c(-c3ccccc3)nc(N3CCN(CC(O)c4ccc(F)cc4)CC3)nc2s1` (stereo not given): the melting point lay within 180 to 182 °C.

For the molecule `CCNC(=S)c1c(Cl)cccc1[Si](C)(C)C`, the melting point was 158 to 159 °C.

`CCNC(=O)/C=C/c1cccc(Br)c1` registered a melting point of 89 to 90 °C.

With `O=C(NO)[C@H]1[C@H](O)CCN1C(=O)c1ccc(OC(F)(F)F)cc1`, the melting point was in the range of 64 to 65 °C.

The molecule `CCCCC(Cc1ccc(OCCNC(=O)c2ccc(N3CCCCC3)cc2)cc1)C(=O)O` (stereo not given) had a melting point of 112 to 114 °C.

For the molecule `NNc1ncc(-c2ccccc2)cn1`, the melting point was 155 °C.

In the case of `NN1CC1c1ccccc1` (stereo not given), the melting point was 60 °C.

With `Cc1cc(O)c2c(C)nn(-c3ccccn3)c2n1`, the melting point is 175 to 176 °C.

In turn, `Cc1ccc(-c2nnc(N3CCC(C)CC3)nc2-c2ccc(C)cc2)cc1` came in with a melting point of 140 to 142 °C.

As to `OCC(I)c1ccccc1` (stereo not given), the melting point lay in the range of 71 to 72 °C.

For `Cc1cccc(-c2[nH]c(C(C)C)nc2-c2cccc(-c3ccc(N)cc3)c2)n1`, the melting point is 107 to 117 °C.

`CN1C(=O)C(NC(=O)Nc2ccc(F)cc2)C(=O)N(C23CC4CC(CC(C4)C2)C3)c2ccccc21` (stereo not given) showed a melting point of 239 to 241 °C.

Turning to `CCOC(=O)c1ccc(NC(C)=O)cc1C(=O)OCC`, the melting point lay in the range of 118 to 121 °C.

Turning to `COc1ccc(C=C(c2ccc(OC)cc2)N(C)C)cc1`, the melting point lay within 67 to 69 °C.

As for `Cc1nc2c3c(ccc2n1C)C(=O)N1C(=O)C(C)(C(C)C)N=C31` (stereo not given), the melting point was in the range of 258 to 263 °C.

`CCCCCCc1ccc(N2C=CC(=C=C3C(C#N)C(=C(C#N)C#N)OC3(C)C)C=C2)cc1` (stereo not given): the melting point stood at 193 °C.

In turn, `O=C(c1cc(N2CCCC(F)(F)C2)ccn1)N(O)Cc1ccccc1` returned a melting point of 140 to 145 °C.

Regarding `COc1ccc(-c2nc(C(F)(F)F)c[nH]2)cc1`, the melting point lay within 204 to 206 °C.

Molecule `CC1(C)OC(=S)Nc2ccc(-c3cccc(F)c3)cc21` showed a melting point of 194 to 195 °C.

Regarding `Nc1cnc2ccsc2c1`, the melting point lay in the range of 121 to 123 °C.

In turn, `CC(C)(C)NC(=O)[C@@H]1CSCN1C[C@@H](O)[C@H](Cc1ccccc1)NC(=O)OCc1ccccc1` had a melting point of 62 to 65 °C.

With `O=C(NS(=O)(=O)c1ccc(Cl)cc1)N1C(=O)C(c2ccccc2)N1C(c1ccccc1)c1ccccc1` (stereo not given), the melting point lay in the range of 162 to 163 °C.

The molecule `NC(=NO)c1ccc(-c2n[nH]c3c2Cc2ccccc2-3)cc1` returned a melting point of over 300 °C.

In the case of `COCCNC(=O)c1ccc(Br)c(C)c1`, the melting point fell in the range of 79 to 81 °C.

As to `CC1NC(=O)NN=C1c1ccc(Br)cc1` (stereo not given), the melting point lay within 214 to 215 °C.

In the case of `Cc1ccccc1N1CC(=O)N(C)C(=O)N1`, the melting point fell in the range of 147 to 148 °C.

Molecule `COCCOC(=O)C1=C(O)c2ccccc2S(=O)(=O)N1C` came in with a melting point of 106 to 108 °C.

As to `COC(=O)[C@@H](Cc1c[nH]c2ccccc12)NS(=O)(=O)c1ccc(OC)cc1`, the melting point is 120 to 122 °C.

With `COCc1cc(-c2ncc3[nH]c4ccc(Cl)c(Cc5ccc(Cl)cc5)c4c3c2COC)no1`, the melting point is 198 to 200 °C.

Turning to `Cc1cc(-c2ccc(C(F)(F)F)cc2)cc(-c2ccnc(-c3cccc(S(N)(=O)=O)c3)c2)n1`, the melting point was over 250 °C.

Take `CCn1ncc2c1ncc1c(=O)[nH]c3nc(S(C)=O)nn3c12` (stereo not given): the melting point is over 300 °C.

Molecule `CCCCCCCCCC(=O)c1cc(OC)c(Cl)cc1OC` registered a melting point of 53 to 54 °C.

Molecule `CSc1cc(C)nc(SC)c1NC(=O)CCCCCSc1nc2ncccc2o1` gave a melting point of 132 to 133 °C.

`O=C(F)c1c(Cl)ccc2cc(C(F)(F)F)cnc12` returned a melting point of 98 to 99 °C.

The molecule `Cc1nc(-c2ccc(N3CCOCC3)cc2)sc1-c1ccnc(Nc2ccc(N3CCOCC3)cc2)n1` showed a melting point of 273 to 274 °C.

For `Cn1cc(C2=C(c3cn(C)c4cc([N+](=O)[O-])ccc34)C(=O)N(CO)C2=O)c2ccccc21`, the melting point lay in the range of 209 to 211 °C.

With `CCOC(=O)c1cnc2c3cc(NC(=O)Nc4ccccc4)ccc3c(C)cn2c1=O`, the melting point was over 300 °C.

Molecule `CC(C)NC(=O)N1c2ccc(S(=O)(=O)n3cc(-c4ccccc4)[nH]c3=O)cc2CC1C` (stereo not given) yielded a melting point of 154 to 156 °C.

`CC1(C)NC(=O)c2cc(OCCBr)ccc2O1` registered a melting point of 190 to 195 °C.

As to `O=C1CCC(N2Cc3c(OCc4ccc5ccccc5c4)cccc3C2=O)C(=O)N1` (stereo not given), the melting point fell in the range of 277 to 279 °C.

In turn, `Cn1c(Cl)c(C#N)c2ccccc21` displayed a melting point of 112 to 114 °C.

`CC(C)(C)OC(=O)c1cc(-c2ccccc2)c(=O)n2ccc3ccsc3c12` came in with a melting point of 155 to 157 °C.

As for `CC1=C(C(=O)c2ccc3c(c2)CN(C(N)=O)CC3)C(C)(C)CCC1`, the melting point lay in the range of 92.5 to 93.6 °C.

The molecule `Cc1nc(-n2cnn(Cc3ccc(F)cc3)c2=O)sc1C(=O)NCc1cccnc1` registered a melting point of 178 to 179 °C.

In turn, `O=C(O)c1ccc2cc(-c3ccc(CCCO)c(C45CC6CC(CC(C6)C4)C5)c3)ccc2c1` registered a melting point of 262 °C.

Molecule `C[C@@H](Cn1ncc2ccc3c(c21)O[C@@H](CO)CO3)NC(=O)OCc1ccccc1` showed a melting point of 116 to 117 °C.

For the molecule `N=C(N)c1ccc(N2CC(CN3CCCC(C(=O)O)C3)OC2=O)cc1` (stereo not given), the melting point turned out to be 198 °C.

Consider `CCCc1ccc(C(=O)O)c2ccccc12`, for which the melting point fell in the range of 134 to 135 °C.

Turning to `Nc1ccc2c(cnn2Cc2cccc(F)c2)c1`, the melting point stood at 130 °C.

`CCCCCSC1=NC(c2cccc([N+](=O)[O-])c2)C(C(=O)OCC)=C(C)N1` (stereo not given) showed a melting point of 104 to 105 °C.

Consider `CC(C)(C)c1ccc(-c2cc(-c3ccccc3)c(-c3ccccc3)s2)cc1`, for which the melting point was 108 to 112 °C.

As for `CC(C)C(c1cccc(NC(=O)OCc2ccccc2)c1)c1c(O)c2c(oc1=O)CCCCCC2` (stereo not given), the melting point was 96 to 101 °C.

Turning to `O=C(N[C@H](Cc1ccccc1)[C@H](O)C(=O)O)c1ccccc1`, the melting point was in the range of 172 to 173 °C.

The molecule `Cc1sc(N)nc1-c1cccc2ccccc12` yielded a melting point of 194 to 195 °C.

In turn, `CCOC(=O)C(C)(C)Oc1cccc(Cc2ccc(C(F)(F)F)cc2)c1` showed a melting point of 50 °C.

Molecule `Cn1ccc(-c2cccc(C=O)n2)n1` yielded a melting point of 98 to 100 °C.

`NC(Cc1cccc2ccccc12)(C(=O)O)C1CC(C(=O)O)C1` (stereo not given) yielded a melting point of 189 to 191 °C.

As for `COc1cc(C(=O)Nc2c(Cl)cc3c(Br)n[nH]c3c2C(=O)NC2(C3CC3)CC2)n(-c2ncccc2Cl)n1`, the melting point fell in the range of 190 to 194 °C.

`O=C(NCCOc1ccc(CC(Oc2ccccc2)C(=O)O)cc1)c1ccc(-c2ccc(C(F)(F)F)cc2)cc1` (stereo not given) registered a melting point of 217 to 218 °C.

In turn, `COc1ccc2c(c1)C(C(=O)N(Cc1ccc(C#N)cc1)c1ccc(C(C)C)cc1)CCC2` (stereo not given) returned a melting point of 137 to 138 °C.

`CS(=O)(=O)c1ccc(-n2nc(CNC(=O)Nc3ccc(OC(F)(F)F)cc3)cc2-c2ccccc2)cc1` registered a melting point of 153 to 156 °C.

As to `CCn1nc2c(cc1=O)CCSc1sc(Br)cc1-2`, the melting point is 149 to 151 °C.

For the molecule `Cc1nc(N2CCN(Cc3ccccc3)C2=O)sc1C(=O)NCc1ccccc1F`, the melting point was 167 to 168 °C.

The molecule `COc1cc2ncc(C#N)c(Nc3ccc(Oc4ccccc4)cc3)c2cc1OC` registered a melting point of 239 to 241 °C.

Molecule `CC(C)(C)OC(=O)CNNC(=O)OCc1ccccc1` displayed a melting point of 61 to 62 °C.

Turning to `O=C(O)C=C[C@H](Cc1ccc(-c2ccccc2)cc1)NCP(=O)(O)O`, the melting point is 231 to 233 °C.

In turn, `CN(Cc1cccc2c1CN(C1CCC(=O)NC1=O)C2=O)C(=O)Nc1cccc2ccccc12` (stereo not given) displayed a melting point of 292 to 294 °C.

Molecule `O=C1CCC(CCC(=O)OCc2ccccc2Cl)N1` (stereo not given) displayed a melting point of 99 to 100 °C.

Turning to `CC(N=Cc1ccc(O)cc1)c1ccccc1` (single isomer, unassigned; (-)), the melting point is 176 to 178 °C.

As to `Cc1c(OCC(F)(F)F)ccnc1CSc1nc2ccccc2n1NC(=O)OC(C)(C)C`, the melting point lay in the range of 153 to 155 °C.

For the molecule `O=C(Nc1cccc([N+](=O)[O-])c1)C(Br)CCBr` (racemic), the melting point was in the range of 75 to 76 °C.

For `C/C(=C\COc1ccc(Cl)cc1Cl)C(=O)O`, the melting point lay in the range of 117 to 122 °C.
